Consider 4 compounds from patent US4254147A, “Pharmaceutical composition for total parenteral nutrition” (priority 1978, dated 1981).

Series [1] can be described thus: Effective utilization of exogenous glycerides on daily carnitine dosing. In kind it is in vivo, patient. How it is done: The dose of carnitine which is administered will be determined by the attending physician having regard to the age, weight and condition of the patient, using sound professional judgement. Although effective utilization of exogenous glycerides can be noticed at doses as low as from 30 to 50 mg/kg of body weight daily, a dose of from about 150 to about 200 mg/kg of body weight daily is preferred.

A short description of series [2]: LD50 acute toxicity, mouse (Litchfield and Wilcoxon method). Conditions: in vivo. From the text: (§1) As known, carnitine contains an asimmetric atom and consequently exists in two stereoisomers. […] Thus, the LD50 in rats and mice assessed for various routes of administration according to the Litchfield and Wilcoxon method is as shown in the following Table A. (Litchfield, J. T., and Wilcoxon, F., J. Pharm. Exptl. Therap. 96, 99. 1949).

Series [3] is described as follows: Activity and toxicity comparison of carnitine isomers (in words). The note with it: isomers of carnitine compared.
From the text: as §1

A short description of series [4]: LD50 acute toxicity, rat (Litchfield and Wilcoxon method). Conditions: in vivo.
From the text: as §1

As to `C[N+](C)(C)CC(O)CC(=O)[O-]` (stereo not shown) [carnitine], the minimal effective dose in series [1] (Homo sapiens, daily carnitine dose, read-out: dose at which effective utilization of exogenous glycerides can be noticed) lay in the range of 30 to 50 mg/kg/day. In addition, in series [1] (in vivo), the toxicity of carnitine entry was “extremely low toxicity”.
For `C[N+](C)(C)C[C@@H](O)CC(=O)[O-]` [D-carnitine], the 50% lethal dose (LD50) was 5400 mg/kg in series [2] (sc) and 10000 mg/kg in series [4] (sc). In series [3], the “toxicity of the isomer” value is “slightly more toxic”.
In series [2] (sc), `C[N+](C)(C)C[C@H](O)CC(=O)[O-]` [L-carnitine] had a 50% lethal dose (LD50) of 7000 mg/kg. Further, the “activity of the isomer” value in series [3] was “more active”.
On to `C[N+](C)(C)CC(O)CC(=O)[O-]` (racemic) [D,L-carnitine], for which the values for the LD50 in series [2] (iv), in series [2] (sc) and in series [4] (iv) were 610 mg/kg, 6000 mg/kg and 995 mg/kg, respectively.

As a reminder, the LD50 is the dose at which mortality reaches 50%. A high value points to lower toxicity.
